Measurements reported in the OligoGym collection.
These antisense oligonucleotides have a phosphorothioate backbone; sugars and methylation of C are not fully specified.

biological target: IKBKB; details: ASO
Further: test concentration or dose not given here.

Sequence	remaining target (mRNA or protein) (fraction of control)
TTGGCCTTGAGCTGCTGA	0.31
TTTCACTTCGTTCTCCCG	0.33

biological target: SUMO1; details: ASO

Sequence	remaining target (mRNA or protein) (fraction of control)
AAACAATAATGAATAATG	≥ 1
AAATCCTTCCCCTTCCCG	≥ 1
AACTTCCGCTACGCCTCG	≥ 1
AATTTCCAGTATTTATGC	0.45
ACAATGAAAACAAACAAT	≥ 1
ACATGATGACGGTGGCTT	≥ 1
ACCACATTACAAAAGAAC	≥ 1
ACTGCTATCCTGTCCAAT	0.67
ACTTCCATCTCCCACTGA	0.47
AGATGTGTTGTCATTTTC	≥ 1
AGCAGTGTTCTGTTGTAT	≥ 1
AGGATTGAGGGAAAAGAA	≥ 1
ATAATGAATAATGAGCAC	≥ 1
ATGATTCTTTGAGTTTCT	0.59
ATTCACCTTCCTTCTTAT	0.55
ATTCTCTGACCCTCAAAG	≥ 1
CAGATGTTTCAAAGAGAT	≥ 1
CAGTATGATTCTTTGAGT	0.53
CCACAGTTCAGTTCTCTG	0.34
CCAGGAGTGAAGTAATCA	≥ 1

Sequence	remaining target (mRNA or protein) (fraction of control)
CCCCTTCCCGACAGCACA	0.92
CCTCAAAGAGAAACCTGA	≥ 1
CTCAGTTGAAGGTTTTGC	≥ 1
CTGTCCAATGACTTTGAG	≥ 1
CTTTGGAGTTAGTCATTA	≥ 1
GATAAACTTCAATCACAT	≥ 1
GCAGTAACTTCCGCTACG	≥ 1
GGCACTTCAGTAACTTTC	0.79
GGGTCTCCGCACAGCAGC	≥ 1
GGGTTTACAAATCCTTCC	≥ 1
GTCTTTGACAGTATGATT	≥ 1
GTTTCTTGAGATGTGTTG	0.86
TCACCTTATCTGTCATCT	≥ 1
TCCATCTCCCACTGAAAG	0.53
TCCGTTTTGAACACCACA	0.29
TGAATCTCACTGCTATCC	≥ 1
TTCATTGGAACACCCTGT	0.32
TTCCTCCATTCCCAGTTC	≥ 1
TTCTTTGAGTTTCTTGAG	≥ 1
TTCTTTTGGAGTATGATT	≥ 1

biological target: IL15; details: ASO

Sequence	remaining target (mRNA or protein) (fraction of control)
AAAAGAAAGGGAGGGAAT	≥ 1
AAGAAGTGTTGATGAACA	0.83
ACACAAGTAGCACTGGAT	0.43
ACACCTACCTTTTAATAA	≥ 1
ACTCTAGGCCCATAGCAA	0.58
ACTGGGTATATTAGCTGC	0.58
AGACATGAATGCCAGCTT	0.26
AGCTGGCTATGGCAAGGG	0.35
AGGCATTAGTAGAGTAAA	0.92
AGTGAAATAACTTGTAAC	≥ 1
ATAATGGTATGGAGGAAG	0.6
ATATTACTCAATGACATT	≥ 1
ATGCATCACCTTTAATCT	0.65
ATTAGAAGACAAACTGTT	≥ 1
ATTTAGGTAAGCTACTCT	0.75
CATAGCAAGTACATGACA	0.46
CCAATACCATGAAGGCAT	0.25
CCAGCTTCAGTTAGAAAA	≥ 1
CCATCCACGATGCCTCCT	0.5
CTAGGGTAAAGTATGATC	≥ 1

Sequence	remaining target (mRNA or protein) (fraction of control)
CTGAACTGAGAGTCAGAT	0.27
CTGTTTTAGGAAGCCCTG	0.58
CTTTTAATAAGCACTCTA	≥ 1
GCCCTGCACTGAAACAGC	0.39
GCCTCCTACAATACAATC	≥ 1
GGGTGAACATCACTTTCC	0.43
GTACATGACAGCCAGGAT	0.35
GTATTGAAGAAGAGCTGG	≥ 1
GTTAGGTGCTTTGGGCCA	0.13
TACATTCACCCAGTTGGC	0.24
TACTTCTCAAATGTGGTT	≥ 1
TCACATTCTTTGCATCCA	0.31
TCATCTTCTTGACAGAAA	≥ 1
TTAGCTGCATCCCAAAAT	0.48
TTAGTAGCATTTAGGTAA	≥ 1
TTCAATAATAAATTAAAA	≥ 1
TTCTCATTACTCAAAGCC	0.87
TTGTTATGTCTAAGCAGC	0.47
TTTAATCTTTACAATAAT	≥ 1
TTTAGAAGTAAACACAAG	≥ 1

biological target: REL; details: ASO

Sequence	remaining target (mRNA or protein) (fraction of control)
AAACAGTAGTATTGGAAT	≥ 1
AATCCACTTGAGATGGGC	0.74
AATGGATTGATTCCTGCC	≥ 1
ACACGACAAATCCTTAAT	≥ 1
ACTAATGTAATTCTCACT	≥ 1
ACTGACTATCTTGAACAA	≥ 1
AGTCAGGAGGCCGAGGGA	≥ 1
ATACGCACCGGAGGCCAT	≥ 1
ATGCCTTTTGCTTCCCAA	0.14
ATGCTGCCTGCTGATCGC	0.41
ATTCTCAGTCAGTATTAT	0.75
ATTTGTATCTAAAACGCA	≥ 1
CAAAATGCTGCATCTATA	0.79
CACAATTCTTGTTTACAC	0.84
CACAGTCTCACCACATTG	0.39
CACTAACTTCCTGGTCAG	0.48
CCATATAAATCTGCTGAT	≥ 1
CGAGACAACAGGAGGAAG	0.8
CGGTTGTTGTCTGTGCTG	0.38
